Reference: PMC3024946, “Hydroxyproline-containing collagen analogs trigger the release and activation of collagen-sequestered proMMP-2 by competition with prodomain-derived peptide P33-42” (Fibrogenesis & Tissue Repair, 2011)

Key:
proMMP-9 / CI = target: T1, proMMP-9 / CI (Homo sapiens, UniProt P14780); test: SPR, competition of proMMP-9 binding to CI, nonactivating buffer
T1 construct: prodomain-containing proMMP-2 or proMMP-9; purchased Invitek
Description: (§1) Sensor chip preparations and SPR measurements were performed using a BiacoreX device and the Bia-evaluation software (version 3.2; Biacore, Uppsala, Sweden). The pepsin-resistant triple-helical part of human fibrillar CI (100 μg/ml) in 10 mM acetate coupling buffer, pH 4.8, was immobilized to a dextran matrix-sensor chip at a flow rate of 5 μl/min, resulting in 5,500 resonance units from CI covalently linked via its primary amino groups. The control flow cell was prepared using the coupling buffer without CI. Surfaces were activated and blocked as described previously. […] The effects of (GPO)10, GAP, (POG)5, (GPP)10 and P33-42 on MMP-2 and MMP-9 binding to CI and their enzymatic activity were determined by adding the binding competitors to the (pro- and act)MMP-2 and MMP-9 solution in 10- to 150-fold molar excesses. Effects independent of MMP-2 and MMP-9 activity were monitored in the presence of Ro 28-2653 (1 μM) during SPR analysis. […] Kinetic parameters were analyzed using the 1:1 binding model with drifting baseline and subtraction of the control flow cell binding from sensorgrams obtained with immobilized CI. Binding constants (Kd) were calculated from the association (ka) and dissociation rates (kd) obtained from individual binding curves at different concentrations. […]

actMMP-2 / CI = target: T2, actMMP-2 / CI (Homo sapiens, UniProt P08253); test: SPR, competition of actMMP-2 binding to CI, nonactivating buffer
T2 construct: purchased Invitek
T2 sequence (P08253 110-660): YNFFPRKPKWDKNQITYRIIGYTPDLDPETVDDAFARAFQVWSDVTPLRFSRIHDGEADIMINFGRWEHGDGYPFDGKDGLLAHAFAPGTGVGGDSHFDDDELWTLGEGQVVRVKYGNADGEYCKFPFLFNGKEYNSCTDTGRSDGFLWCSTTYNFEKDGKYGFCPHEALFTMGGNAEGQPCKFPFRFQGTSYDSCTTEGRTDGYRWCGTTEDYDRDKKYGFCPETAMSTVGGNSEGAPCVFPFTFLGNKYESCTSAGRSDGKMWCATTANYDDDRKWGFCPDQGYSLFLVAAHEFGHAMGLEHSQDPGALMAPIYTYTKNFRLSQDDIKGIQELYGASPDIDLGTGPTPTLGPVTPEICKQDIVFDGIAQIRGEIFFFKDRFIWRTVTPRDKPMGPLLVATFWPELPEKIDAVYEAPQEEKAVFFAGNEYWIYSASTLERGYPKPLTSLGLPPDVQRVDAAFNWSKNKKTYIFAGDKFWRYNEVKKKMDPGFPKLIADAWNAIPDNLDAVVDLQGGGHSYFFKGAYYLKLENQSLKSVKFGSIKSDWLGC
Description: as §1

actMMP-9 / CI = target: T3, actMMP-9 / CI (Homo sapiens, UniProt P14780); test: SPR, competition of actMMP-9 binding to CI, nonactivating buffer; conditions: actMMP-9 (100 nM) binding to CI with 10× (GPO)10; PBS, 0.05% Tween 20
T3 construct: purchased Invitek
Description: as §1

proMMP-2 / CI = target: T4, proMMP-2 / CI (Homo sapiens, UniProt P08253); test: SPR, competition of proMMP-2 binding to CI, nonactivating buffer
T4 construct: prodomain-containing proMMP-2 or proMMP-9; purchased Invitek
T4 sequence (P08253 30-660 limits assumed): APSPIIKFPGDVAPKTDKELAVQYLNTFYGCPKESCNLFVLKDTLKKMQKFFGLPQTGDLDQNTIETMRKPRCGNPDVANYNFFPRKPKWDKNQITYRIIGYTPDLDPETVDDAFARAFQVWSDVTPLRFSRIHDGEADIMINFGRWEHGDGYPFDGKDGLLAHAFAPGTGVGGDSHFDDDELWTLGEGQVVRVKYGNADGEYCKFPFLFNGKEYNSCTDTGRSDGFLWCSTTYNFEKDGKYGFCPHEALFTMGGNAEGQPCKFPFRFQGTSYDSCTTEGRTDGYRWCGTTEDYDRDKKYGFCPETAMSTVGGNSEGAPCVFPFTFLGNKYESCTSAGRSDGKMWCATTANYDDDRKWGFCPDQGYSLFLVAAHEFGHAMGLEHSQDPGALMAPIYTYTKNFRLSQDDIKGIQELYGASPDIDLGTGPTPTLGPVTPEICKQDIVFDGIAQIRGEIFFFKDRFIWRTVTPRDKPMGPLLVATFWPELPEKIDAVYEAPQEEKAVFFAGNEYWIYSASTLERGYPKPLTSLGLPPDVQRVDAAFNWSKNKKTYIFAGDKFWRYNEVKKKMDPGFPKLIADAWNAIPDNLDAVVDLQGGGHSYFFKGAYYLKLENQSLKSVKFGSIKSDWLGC
Description: as §1

T1 sequence (P14780 20-707 limits assumed): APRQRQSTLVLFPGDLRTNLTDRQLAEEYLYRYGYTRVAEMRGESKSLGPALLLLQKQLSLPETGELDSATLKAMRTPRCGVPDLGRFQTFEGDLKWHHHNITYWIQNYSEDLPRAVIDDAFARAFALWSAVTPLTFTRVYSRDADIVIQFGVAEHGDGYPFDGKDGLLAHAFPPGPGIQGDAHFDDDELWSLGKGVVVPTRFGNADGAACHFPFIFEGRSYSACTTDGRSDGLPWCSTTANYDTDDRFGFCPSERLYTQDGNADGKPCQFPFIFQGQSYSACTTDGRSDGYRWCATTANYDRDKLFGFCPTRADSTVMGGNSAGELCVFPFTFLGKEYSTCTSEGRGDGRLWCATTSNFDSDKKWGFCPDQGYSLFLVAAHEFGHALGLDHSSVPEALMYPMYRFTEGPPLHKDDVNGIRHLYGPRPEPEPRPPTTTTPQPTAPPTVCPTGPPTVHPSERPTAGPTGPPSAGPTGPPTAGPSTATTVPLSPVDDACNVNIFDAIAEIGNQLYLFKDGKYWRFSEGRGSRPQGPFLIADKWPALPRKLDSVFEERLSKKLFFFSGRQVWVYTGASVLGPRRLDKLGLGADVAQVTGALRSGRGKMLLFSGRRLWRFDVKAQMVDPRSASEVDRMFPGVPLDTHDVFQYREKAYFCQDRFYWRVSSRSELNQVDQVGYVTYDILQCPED
T3 sequence (P14780 107-707 limits assumed): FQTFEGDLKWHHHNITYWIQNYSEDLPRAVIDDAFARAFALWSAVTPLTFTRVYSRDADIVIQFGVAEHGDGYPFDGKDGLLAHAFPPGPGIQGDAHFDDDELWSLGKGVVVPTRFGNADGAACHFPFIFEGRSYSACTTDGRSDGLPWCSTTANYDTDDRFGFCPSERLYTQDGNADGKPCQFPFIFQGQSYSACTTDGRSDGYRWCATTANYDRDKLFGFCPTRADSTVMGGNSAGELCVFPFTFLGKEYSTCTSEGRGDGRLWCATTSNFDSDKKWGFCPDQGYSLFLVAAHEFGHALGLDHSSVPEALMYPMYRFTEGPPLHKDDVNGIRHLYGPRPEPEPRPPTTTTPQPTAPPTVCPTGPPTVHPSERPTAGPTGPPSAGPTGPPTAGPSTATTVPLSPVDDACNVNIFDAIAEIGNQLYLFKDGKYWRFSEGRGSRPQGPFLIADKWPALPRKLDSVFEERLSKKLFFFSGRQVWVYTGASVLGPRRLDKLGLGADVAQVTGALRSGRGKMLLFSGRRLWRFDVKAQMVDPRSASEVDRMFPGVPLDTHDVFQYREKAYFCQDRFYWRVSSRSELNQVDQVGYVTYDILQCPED

In the case of “H-Gly-Cys-Hyp-(Gly-Pro-Hyp)10-Gly-Cys-Hyp-Gly-NH2 [(GPO)10, triple-helical Hyp-containing collagen analog]”, the Off rate (proMMP-9 / CI; proMMP-9 (100 nM) binding to CI with 10× (GPO)10, PBS, 0.05% Tween 20) is reported as 0.22 s⁻¹, the “effect on binding to CI” value (proMMP-9 / CI; proMMP-9, 10-fold molar excess) is reported as “more pronounced effects” and the Off rate (actMMP-2 / CI; actMMP-2 (100 nM) binding to CI with 10× (GPO)10, PBS, 0.05% Tween 20) is reported as 0.56 s⁻¹. The “effect on binding to CI” value (actMMP-2 / CI; actMMP-2, 10-fold molar excess) was “only slightly impaired”, the Off rate (actMMP-9 / CI) was 0.61 s⁻¹ and the Off rate (proMMP-2 / CI; proMMP-2 (100 nM) binding to CI with 10× (GPO)10, PBS, 0.05% Tween 20) was 0.37 s⁻¹. For the same substance, the “effect on binding to CI” value (proMMP-2 / CI; proMMP-2, 10-fold molar excess) was “only slightly impaired”.
